ChEMBL document CHEMBL3431459, “Roche carnitine palmitoyltransferase modulator screening data (supplementary data associated with the publication CHEMBL2216752)”
In brackets after ≈: the same amount, converted by molar mass.

Key:
[1] = target: T1, Carnitine O-palmitoyltransferase 1, muscle isoform (Homo sapiens, UniProt Q92523); assay: SUPPLEMENTARY: Inhibition of Carnitine palmitoyltransferase 1, muscle isoform; parameters: species or system Muscle tissue
T1 sequence (Q92523 whole entry): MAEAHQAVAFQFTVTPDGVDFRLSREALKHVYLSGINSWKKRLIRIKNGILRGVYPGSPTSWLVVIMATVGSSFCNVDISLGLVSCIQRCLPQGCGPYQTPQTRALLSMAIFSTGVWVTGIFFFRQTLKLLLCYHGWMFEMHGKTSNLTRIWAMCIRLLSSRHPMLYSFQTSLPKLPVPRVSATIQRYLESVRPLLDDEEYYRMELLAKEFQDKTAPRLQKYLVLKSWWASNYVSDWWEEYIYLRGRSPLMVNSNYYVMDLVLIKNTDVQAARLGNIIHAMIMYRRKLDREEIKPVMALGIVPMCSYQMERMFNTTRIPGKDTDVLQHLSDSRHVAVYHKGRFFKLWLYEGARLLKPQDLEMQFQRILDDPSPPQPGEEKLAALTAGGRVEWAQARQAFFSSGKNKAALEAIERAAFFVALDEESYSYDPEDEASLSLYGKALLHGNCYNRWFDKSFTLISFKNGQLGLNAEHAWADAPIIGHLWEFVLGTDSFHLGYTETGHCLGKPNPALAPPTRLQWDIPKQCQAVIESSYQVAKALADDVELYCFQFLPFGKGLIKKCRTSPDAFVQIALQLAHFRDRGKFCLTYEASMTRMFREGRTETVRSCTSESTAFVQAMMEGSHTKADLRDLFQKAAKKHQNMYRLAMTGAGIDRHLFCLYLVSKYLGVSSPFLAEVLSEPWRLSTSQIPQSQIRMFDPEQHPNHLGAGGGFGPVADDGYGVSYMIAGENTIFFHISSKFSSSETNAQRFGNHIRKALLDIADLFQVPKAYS

[2] = target: T2, Carnitine O-palmitoyltransferase 2, mitochondrial (Homo sapiens, UniProt P23786); assay: (§1) SUPPLEMENTARY: Inhibition of Carnitine palmitoyltransferase 2
T2 sequence (P23786 whole entry): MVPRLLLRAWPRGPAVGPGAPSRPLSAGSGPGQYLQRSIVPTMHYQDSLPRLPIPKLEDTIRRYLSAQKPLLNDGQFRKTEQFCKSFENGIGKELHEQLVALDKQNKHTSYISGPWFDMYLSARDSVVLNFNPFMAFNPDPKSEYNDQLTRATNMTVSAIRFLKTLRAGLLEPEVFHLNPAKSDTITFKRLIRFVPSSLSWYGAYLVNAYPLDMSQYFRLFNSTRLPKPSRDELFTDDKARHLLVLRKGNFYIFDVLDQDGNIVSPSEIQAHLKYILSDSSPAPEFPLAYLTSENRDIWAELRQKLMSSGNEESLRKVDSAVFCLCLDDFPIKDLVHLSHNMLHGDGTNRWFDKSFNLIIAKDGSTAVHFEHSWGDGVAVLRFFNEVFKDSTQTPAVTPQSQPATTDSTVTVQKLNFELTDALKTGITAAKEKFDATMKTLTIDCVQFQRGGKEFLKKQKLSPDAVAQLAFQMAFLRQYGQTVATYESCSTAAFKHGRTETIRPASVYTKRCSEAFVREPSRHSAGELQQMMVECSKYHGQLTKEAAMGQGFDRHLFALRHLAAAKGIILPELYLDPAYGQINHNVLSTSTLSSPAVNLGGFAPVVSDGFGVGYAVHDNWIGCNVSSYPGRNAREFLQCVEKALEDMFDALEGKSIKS

[3] = target: T3, Carnitine O-palmitoyltransferase 2, mitochondrial (Rattus norvegicus, UniProt P18886); assay: as §1
T3 sequence (P18886 whole entry): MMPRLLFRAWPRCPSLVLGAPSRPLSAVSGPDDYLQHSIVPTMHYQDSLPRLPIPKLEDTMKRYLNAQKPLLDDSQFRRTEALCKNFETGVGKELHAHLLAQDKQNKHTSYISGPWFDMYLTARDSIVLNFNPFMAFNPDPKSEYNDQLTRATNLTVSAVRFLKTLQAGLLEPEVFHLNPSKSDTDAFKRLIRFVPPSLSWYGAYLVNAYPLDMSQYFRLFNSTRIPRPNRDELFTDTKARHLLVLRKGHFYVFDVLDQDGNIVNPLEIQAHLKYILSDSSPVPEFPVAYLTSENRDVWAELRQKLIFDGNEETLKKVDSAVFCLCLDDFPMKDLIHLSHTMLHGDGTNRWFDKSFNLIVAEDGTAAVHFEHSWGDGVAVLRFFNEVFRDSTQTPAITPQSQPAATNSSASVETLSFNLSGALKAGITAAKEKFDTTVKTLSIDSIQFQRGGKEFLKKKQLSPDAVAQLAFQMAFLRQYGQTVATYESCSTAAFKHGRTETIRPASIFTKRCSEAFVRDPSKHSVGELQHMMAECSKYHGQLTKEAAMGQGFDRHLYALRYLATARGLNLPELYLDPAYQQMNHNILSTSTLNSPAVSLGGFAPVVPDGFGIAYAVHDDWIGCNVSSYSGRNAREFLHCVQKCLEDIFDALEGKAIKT

[4] = target: T4, Carnitine O-palmitoyltransferase 1, liver isoform (Homo sapiens, UniProt P50416); assay: (§2) SUPPLEMENTARY: Inhibition of Carnitine palmitoyltransferase 1, liver isoform
T4 sequence (P50416 whole entry): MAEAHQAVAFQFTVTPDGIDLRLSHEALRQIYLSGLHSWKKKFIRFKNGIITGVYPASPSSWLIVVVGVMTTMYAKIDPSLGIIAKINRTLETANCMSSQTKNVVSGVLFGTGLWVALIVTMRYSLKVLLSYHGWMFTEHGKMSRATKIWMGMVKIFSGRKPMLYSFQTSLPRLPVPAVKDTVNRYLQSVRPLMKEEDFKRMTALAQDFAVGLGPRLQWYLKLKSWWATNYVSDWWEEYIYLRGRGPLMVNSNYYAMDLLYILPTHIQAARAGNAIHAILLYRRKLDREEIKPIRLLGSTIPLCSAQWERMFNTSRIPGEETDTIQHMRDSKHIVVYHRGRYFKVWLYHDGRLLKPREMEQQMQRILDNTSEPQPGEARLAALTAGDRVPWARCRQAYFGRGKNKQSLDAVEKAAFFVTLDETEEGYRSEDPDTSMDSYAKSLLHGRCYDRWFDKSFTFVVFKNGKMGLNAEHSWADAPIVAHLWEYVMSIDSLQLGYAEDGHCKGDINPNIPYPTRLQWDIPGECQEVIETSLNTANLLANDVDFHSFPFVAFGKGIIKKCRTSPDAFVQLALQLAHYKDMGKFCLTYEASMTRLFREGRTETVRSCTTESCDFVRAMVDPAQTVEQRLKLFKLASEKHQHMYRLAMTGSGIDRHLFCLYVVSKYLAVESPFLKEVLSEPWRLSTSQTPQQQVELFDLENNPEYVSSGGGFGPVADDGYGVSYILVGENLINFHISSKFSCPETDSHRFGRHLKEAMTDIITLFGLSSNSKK

[5] = target: T5, Carnitine O-palmitoyltransferase 1, liver isoform (Rattus norvegicus, UniProt P32198); assay: as §2
T5 sequence (P32198 whole entry): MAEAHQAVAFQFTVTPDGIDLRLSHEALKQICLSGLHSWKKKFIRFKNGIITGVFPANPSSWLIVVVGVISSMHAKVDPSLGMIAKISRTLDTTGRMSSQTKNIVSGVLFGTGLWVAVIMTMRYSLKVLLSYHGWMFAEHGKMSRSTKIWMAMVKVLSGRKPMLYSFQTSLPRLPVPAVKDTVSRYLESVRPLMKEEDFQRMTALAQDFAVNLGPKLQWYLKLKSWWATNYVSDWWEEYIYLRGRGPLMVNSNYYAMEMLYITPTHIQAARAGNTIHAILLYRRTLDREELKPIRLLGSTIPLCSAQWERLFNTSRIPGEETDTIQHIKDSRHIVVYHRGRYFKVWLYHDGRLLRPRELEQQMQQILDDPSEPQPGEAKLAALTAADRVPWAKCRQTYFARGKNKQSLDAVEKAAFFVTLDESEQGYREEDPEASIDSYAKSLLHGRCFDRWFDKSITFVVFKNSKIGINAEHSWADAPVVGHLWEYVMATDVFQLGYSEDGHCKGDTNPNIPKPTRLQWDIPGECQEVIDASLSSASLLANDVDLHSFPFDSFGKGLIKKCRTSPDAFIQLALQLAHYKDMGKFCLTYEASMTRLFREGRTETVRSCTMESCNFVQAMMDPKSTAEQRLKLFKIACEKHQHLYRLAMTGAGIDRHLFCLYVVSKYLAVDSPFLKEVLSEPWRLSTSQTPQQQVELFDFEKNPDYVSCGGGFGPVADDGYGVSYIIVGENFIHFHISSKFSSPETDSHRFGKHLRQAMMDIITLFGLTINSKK

[6] = SUPPLEMENTARY: Lyophilisation Solubility Assay (LYSA); assay type: physicochemical; settings: read-out: Kinetic_solubility
[7] = SUPPLEMENTARY: Lipophilicity (log D) Determination by high-throughput shake-flask; assay type: physicochemical; settings: octanol/water
[8] = SUPPLEMENTARY: PAMPA permeability assay; assay type: physicochemical; settings: read-out: Permeability

| IC50 [1] | IC50 [2] | IC50 [3] | IC50 [4] | IC50 [5] | solubility kinetic [6] | logD [7] | Papp [8] | SMILES |
| --- | --- | --- | --- | --- | --- | --- | --- | --- |
| > 100000 nM | 39800 nM | 42900 nM | 211 nM | 1150 nM | 73 µg/mL (≈ 175 µM) | 2.35 | 3.29 ×10⁻⁶ cm/s | O=C1Cc2ccc(-c3n[nH]c([C@H]4CCCCN4C(=O)COc4ccccc4)n3)cc2N1 |
| > 100000 nM | > 100000 nM | > 100000 nM | 95.9 nM | 102 nM | 13 µg/mL (≈ 31.1 µM) | 2.63 | 1.46 ×10⁻⁶ cm/s | O=C1Cc2ccc(-c3noc([C@H]4CCCCN4C(=O)COc4ccccc4)n3)cc2N1 |
| > 100000 nM | 22300 nM | > 100000 nM | 206 nM | 125 nM | 18 µg/mL (≈ 40.8 µM) | 2.39 | 2.96 ×10⁻⁶ cm/s | CS(=O)(=O)c1cccc(-c2nc([C@H]3CCCCN3C(=O)COc3ccccc3)no2)c1 |
| > 100000 nM | 81400 nM | > 100000 nM | 106 nM | 187 nM | 61.5 µg/mL (≈ 162 µM) | 3.06 | 4.79 ×10⁻⁶ cm/s | O=C(COc1ccccc1)N1CCCC[C@@H]1c1nc(-c2ccccc2F)n[nH]1 |
| 93600 nM | > 100000 nM | > 100000 nM | 93.5 nM | 1490 nM | > 461 µg/mL | 0.99 | 1.92 ×10⁻⁶ cm/s | O=C(O)c1cccc(-c2noc([C@H]3CCCCN3C(=O)COc3ccccc3)n2)c1 |
| > 100000 nM | 642 nM | 477 nM | 63.8 nM | 64.1 nM | 14 µg/mL (≈ 31.2 µM) | 2.8 | 4.45 ×10⁻⁶ cm/s | O=C([C@H]1CCCCN1C(=O)COc1ccccc1)N1Cc2ccc(C3CCOCC3)cc2C1 |
| > 100000 nM | 616 nM | 819 nM | 336 nM | 567 nM | 15 µg/mL (≈ 37.6 µM) | 3.26 | 5.03 ×10⁻⁶ cm/s | O=C([C@H]1CCCCN1C(=O)COc1ccccc1)N1Cc2ccc(Cl)cc2C1 |
| > 100000 nM | 62300 nM | > 100000 nM | 223 nM | 376 nM | < 1 µg/mL | > 3 | 4.39 ×10⁻⁶ cm/s | O=C(COc1ccccc1)N1CCCC[C@@H]1c1nc(-c2ccc([N+](=O)[O-])s2)no1 |
| > 100000 nM | > 100000 nM | > 100000 nM | 123 nM | 131 nM | < 1 µg/mL | 3.62 | 1.35 ×10⁻⁶ cm/s | CC(=O)Nc1cc(F)cc(-c2noc([C@H]3CCCCN3C(=O)COc3ccccc3)n2)c1 |
| > 100000 nM | 14100 nM | > 100000 nM | 111 nM | 253 nM | < 1 µg/mL | 3.16 | 0.83 ×10⁻⁶ cm/s | CN(C)C(=O)CCC(=O)Nc1cc(F)cc(-c2noc([C@H]3CCCCN3C(=O)COc3ccccc3)n2)c1 |
| > 100000 nM | 38200 nM | > 100000 nM | 154 nM | 254 nM | 32 µg/mL (≈ 80.2 µM) | 2.98 | 5.17 ×10⁻⁶ cm/s | O=C(COc1ccccc1)N1CCCC[C@@H]1c1noc(-c2ccc(Cl)nc2)n1 |
| 35900 nM | 312 nM | 2010 nM | 78.2 nM | 79.4 nM | 13 µg/mL (≈ 25.8 µM) | 1.32 | 1.85 ×10⁻⁶ cm/s | COc1ccc(Cl)cc1S(=O)(=O)N1COc2c(C)cc(C(=O)Nc3ccc(C(=O)O)cc3)cc21 |
| 2330 nM | > 100000 nM | > 100000 nM | 147 nM | 41.9 nM | 26 µg/mL (≈ 51.1 µM) | 0.51 | 1.71 ×10⁻⁶ cm/s | COc1ccc(Cl)cc1CN1C(=O)OC(C)(C)c2ccc(C(=O)Nc3ccc(CC(=O)O)cc3)cc21 |

| SMILES | IC50 [1] | IC50 [2] | IC50 [3] | IC50 [4] | IC50 [5] | solubility kinetic [6] | logD [7] | Papp [8] |
| --- | --- | --- | --- | --- | --- | --- | --- | --- |
| O=C(Nc1ccc(-c2nnn[nH]2)cc1)c1nn(Cc2ccc(OC(F)F)cc2)c2ccc(F)cc12 | 26800 nM | > 100000 nM | > 100000 nM | 210 nM | 2870 nM | 1 µg/mL (≈ 2.09 µM) | > 3 | 0.46 ×10⁻⁶ cm/s |
